Results on three compounds are retold here after patent publication US7445921B2, “Transglycosylation method and protein having transglycosylation activity” (priority 2004, dated 2008).

No end group written: not given here.

The subject of test [1] is recombinant endo-α-GalNAc-ase. The note with it: substance as sugar source 1.2 mM, TLC.
Description: The reaction system for measurement of transglycosylation activity was carried out by using the sugar chain donor Galβ1-3GalNAcα1-pNP at a final concentration of 2 mM, the acceptor 1-alkanol at a final concentration of 15% (v/v) and the purified enzyme (recombinant endo-α-GalNAc-ase) at a final concentration of 6.8 units/L in a 50 mM potassium phosphate buffer, pH 7.0.
Test [2] concerns recombinant endo-α-GalNAc-ase. The test is described as follows: Transglycosylation into polypeptide (HPLC, MALDI-TOF-MS). In kind it is biochemical, Bifidobacterium longum JCM1217. The settings on record: donor Galβ1-3GalNAcα1-pNP, sodium phosphate buffer pH 6, 37° C., one hour, HPLC product peak. The method, then:
First, an enzymatic reaction of recombinant endo-α-GalNAc-ase purified in (7) was performed with Galβ1-3GalNAcα1-pNP as the sugar chain donor and peptide-T (see SEQ ID: 16), PAMP-12 (an amino acid sequence shown in SEQ ID: 17 with an amino group attached at C-end of the sequence) and bradykinin (see SEQ ID: 18) as the sugar chain acceptor.
That is, 10 μl of Galβ1-3GalNAcα1-pNP, 6 μl solution of each polypeptide as the acceptor and 1.5 μl of NaP (sodium phosphate) buffer (500 mM, pH 6) were mixed. The sugar chain donor, Galβ1-3GalNAcα1-pNP was used at a concentration of 10 mM, and for the peptide solution, each of 50 mM peptide-T, 50 mM bradykinin, and 10 mM PAMP-12 was used. A solution obtained by mixing was warmed up to 37° C., subsequently 2.5 μl of endo-α-GalNAc-ase (1.55 unit/ml) was added thereto, which was then incubated in a water bath at 37° C. for one hour. Subsequently, the enzyme was inactivated by boiling for 3 to 5 minutes.
Each reaction solution obtained in the aforementioned enzymatic reaction was applied to an HPLC analysis, and reaction products were analyzed and fractionated. […] UV (wavelength 214 nm) spectra were detected.
Detected results of each reaction solution for peptide-T, PAMP-12 and bradykinin are shown in FIGS. 5A, 5B and 5C, respectively.
The fractions fractionated by the aforementioned HPLC were analyzed by MALDI-TOF-MS. […]
Target sequence in this assay (as listed by the source): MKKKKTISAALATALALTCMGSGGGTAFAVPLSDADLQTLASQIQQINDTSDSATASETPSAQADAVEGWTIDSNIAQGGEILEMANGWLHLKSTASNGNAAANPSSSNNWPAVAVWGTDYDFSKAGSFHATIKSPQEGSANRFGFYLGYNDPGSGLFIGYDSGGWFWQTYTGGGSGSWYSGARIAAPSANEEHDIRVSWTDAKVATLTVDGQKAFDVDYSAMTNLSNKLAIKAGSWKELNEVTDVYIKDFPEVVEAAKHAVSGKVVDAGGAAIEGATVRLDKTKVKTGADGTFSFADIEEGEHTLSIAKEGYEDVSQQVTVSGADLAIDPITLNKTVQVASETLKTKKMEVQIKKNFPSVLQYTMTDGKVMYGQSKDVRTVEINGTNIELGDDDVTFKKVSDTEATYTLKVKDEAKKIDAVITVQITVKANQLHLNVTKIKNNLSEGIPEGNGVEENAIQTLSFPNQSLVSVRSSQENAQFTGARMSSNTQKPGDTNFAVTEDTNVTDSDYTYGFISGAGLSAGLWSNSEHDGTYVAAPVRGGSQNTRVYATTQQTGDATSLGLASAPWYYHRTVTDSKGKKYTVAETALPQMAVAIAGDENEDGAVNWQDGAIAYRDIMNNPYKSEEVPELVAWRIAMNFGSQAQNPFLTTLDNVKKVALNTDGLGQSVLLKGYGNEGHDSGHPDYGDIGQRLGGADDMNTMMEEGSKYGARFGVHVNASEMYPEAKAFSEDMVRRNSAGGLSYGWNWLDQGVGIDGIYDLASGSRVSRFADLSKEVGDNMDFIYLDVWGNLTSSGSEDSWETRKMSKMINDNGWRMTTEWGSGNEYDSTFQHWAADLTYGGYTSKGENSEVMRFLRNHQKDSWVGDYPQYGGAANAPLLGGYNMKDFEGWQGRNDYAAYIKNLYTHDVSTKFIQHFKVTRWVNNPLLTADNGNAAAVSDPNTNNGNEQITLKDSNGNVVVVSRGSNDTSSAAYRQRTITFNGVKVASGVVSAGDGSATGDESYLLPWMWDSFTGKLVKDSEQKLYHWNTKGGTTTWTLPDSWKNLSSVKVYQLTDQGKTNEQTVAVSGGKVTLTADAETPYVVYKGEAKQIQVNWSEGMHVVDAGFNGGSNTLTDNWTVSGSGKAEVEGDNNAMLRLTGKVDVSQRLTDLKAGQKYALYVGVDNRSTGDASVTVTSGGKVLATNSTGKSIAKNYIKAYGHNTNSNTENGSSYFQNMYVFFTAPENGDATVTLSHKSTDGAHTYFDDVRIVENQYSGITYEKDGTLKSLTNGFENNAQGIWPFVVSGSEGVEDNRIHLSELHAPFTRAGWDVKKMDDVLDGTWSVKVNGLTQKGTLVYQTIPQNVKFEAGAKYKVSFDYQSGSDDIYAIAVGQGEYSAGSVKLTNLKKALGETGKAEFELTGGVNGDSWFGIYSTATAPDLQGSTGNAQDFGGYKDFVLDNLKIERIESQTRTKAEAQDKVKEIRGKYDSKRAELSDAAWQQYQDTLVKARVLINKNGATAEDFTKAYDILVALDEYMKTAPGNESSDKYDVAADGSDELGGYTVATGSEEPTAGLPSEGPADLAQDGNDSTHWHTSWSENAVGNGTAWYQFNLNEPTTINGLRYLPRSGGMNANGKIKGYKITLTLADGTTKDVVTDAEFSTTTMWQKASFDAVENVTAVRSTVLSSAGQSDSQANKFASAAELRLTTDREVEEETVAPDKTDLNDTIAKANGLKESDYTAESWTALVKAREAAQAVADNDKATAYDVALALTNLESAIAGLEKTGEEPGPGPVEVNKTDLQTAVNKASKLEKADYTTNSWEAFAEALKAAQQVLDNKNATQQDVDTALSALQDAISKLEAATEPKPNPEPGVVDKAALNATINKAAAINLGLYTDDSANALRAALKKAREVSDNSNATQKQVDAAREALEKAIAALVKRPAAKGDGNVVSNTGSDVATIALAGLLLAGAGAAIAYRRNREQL

`CC(=O)N[C@H]1[C@@H](Oc2ccc([N+](=O)[O-])cc2)O[C@H](CO)[C@H](O)[C@@H]1O[C@@H]1O[C@H](CO)[C@H](O)[C@H](O)[C@H]1O` [Galβ1-3GalNAcα1-pNP, galactosyl β1→3N-acetylgalactosaminyl α1-p-nitrophenol, reference compound]: the “Formation of product spot in reaction with methanol as acceptor (transglycosylation vs reverse hydrolysis)” value in test [1] is “formed”.

Take `CC(=O)N[C@H]1C(O)O[C@H](CO)[C@H](O)[C@@H]1O[C@@H]1O[C@H](CO)[C@H](O)[C@H](O)[C@H]1O` (stereo partly drawn) [Galβ1-3GalNAc, galactosyl β1→3N-acetylgalactosamine]: in test [1], the “Formation of product spot in reaction with methanol as acceptor (transglycosylation vs reverse hydrolysis)” value was “not formed”.

Turning to “PAMP-12: amino acid sequence shown in SEQ ID: 17 with an amino group attached at C-end; sugar chain acceptor (FRKKWNKWALSR-NH2; listed as Homo sapiens)”, the “Transfer of disaccharide (Gal-GalNAc) to the peptide acceptor” value in test [2] is “disaccharide (Gal-GalNAc) had been transferred”.
